Biological target: α-glucosidase (Saccharomyces cerevisiae, UniProt P38158)
Assay: In vitro α-glucosidase inhibition assay
Type: biochemical, S. cerevisiae
Settings: for inhibition at 500 µM: read-out: percent inhibition (0.5 mM)

Chain of α-glucosidase (P38158 whole entry): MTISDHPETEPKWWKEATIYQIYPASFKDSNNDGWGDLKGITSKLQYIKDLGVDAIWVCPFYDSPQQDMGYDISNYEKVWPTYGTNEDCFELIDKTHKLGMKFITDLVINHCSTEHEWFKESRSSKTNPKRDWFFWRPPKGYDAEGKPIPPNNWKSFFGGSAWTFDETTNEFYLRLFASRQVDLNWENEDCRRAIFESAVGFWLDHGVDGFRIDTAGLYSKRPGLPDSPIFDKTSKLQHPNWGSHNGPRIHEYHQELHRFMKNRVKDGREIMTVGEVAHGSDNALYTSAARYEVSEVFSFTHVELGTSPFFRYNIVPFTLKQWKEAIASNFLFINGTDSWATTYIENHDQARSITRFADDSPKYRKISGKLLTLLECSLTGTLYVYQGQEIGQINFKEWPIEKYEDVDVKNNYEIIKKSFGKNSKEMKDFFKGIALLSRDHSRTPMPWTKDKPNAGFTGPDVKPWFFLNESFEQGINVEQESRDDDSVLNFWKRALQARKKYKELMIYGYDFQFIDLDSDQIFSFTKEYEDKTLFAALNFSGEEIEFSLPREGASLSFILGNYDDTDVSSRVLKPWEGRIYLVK

Structure (SMILES)	IC50	inhibition at 500 µM
Oc1ccc(C=Nc2ccc3[nH]c(S)nc3c2)cc1 [7a, 4-(((2-Mercapto-1H-benzo[d]imidazol-5-yl)imino)methyl)phenol]	11.8 ± 0.26 µM	95.7%
Sc1nc2cc(N=Cc3ccc(Cl)cc3)ccc2[nH]1 [7b, 5-((4-Chlorobenzylidene)amino)-1H-benzo[d]imidazole-2-thiol]	27.3 ± 0.3 µM	93.2%
O=[N+]([O-])c1ccc(C=Nc2ccc3[nH]c(S)nc3c2)cc1 [7c, 5-((4-Nitrobenzylidene)amino)-1H-benzo[d]imidazole-2-thiol]	9.84 ± 0.08 µM	95.7%
CCN(CC)c1ccc(C=Nc2ccc3[nH]c(S)nc3c2)cc1 [7d, 5-((4-(Diethylamino)benzylidene)amino)-1H-benzo[d]imidazole-2-thiol]	5.34 ± 0.16 µM	96.6%
COc1cccc(C=Nc2ccc3[nH]c(S)nc3c2)c1O [7e, 2-(((2-Mercapto-1H-benzo[d]imidazol-5-yl)imino)methyl)-6-methoxyphenol]	16.4 ± 0.53 µM	91.3%
COc1ccc(C=Nc2ccc3[nH]c(S)nc3c2)c(OC)c1 [7f, 5-((2,4-Dimethoxybenzylidene)amino)-1H-benzo[d]imidazole-2-thiol]	6.46 ± 0.3 µM	95%
COc1ccc(C=Nc2ccc3[nH]c(S)nc3c2)cc1OC [7h, 5-((3,4-Dimethoxybenzylidene)amino)-1H-benzo[d]imidazole-2-thiol]	20.7 ± 0.59 µM	91.7%
Oc1ccc(C=Nc2ccc3[nH]c(S)nc3c2)c(O)c1 [7i, 4-(((2-Mercapto-1H-benzo[d]imidazol-5-yl)Imino)methyl)benzene-1,3-diol]	0.64 ± 0.05 µM	95.4%
COc1cc(C=Nc2ccc3[nH]c(S)nc3c2)cc(OC)c1OC [7j, 5-((3,4,5-Trimethoxybenzylidene)amino)-1H-benzo[d]imidazole-2-thiol]	18.7 ± 0.74 µM	94.7%
Sc1nc2cc(N=Cc3cccs3)ccc2[nH]1 [7k, 5-((Thiophen-2-ylmethylene)amino)-1H-benzo[d]imidazole-2-thiol]	70.3 ± 1.52 µM	87.6%
COc1ccccc1C=Nc1ccc2[nH]c(S)nc2c1 [7l, 5-((2-Methoxybenzylidene)amino)-1H-benzo[d]imidazole-2-thiol]	343.1 ± 1.62 µM	83.2%
Cc1ccc(C=Nc2ccc3[nH]c(S)nc3c2)cc1 [7m, 5-((4-Methylbenzylidene)amino)-1H-benzo[d]imidazole-2-thiol]	11.1 ± 0.79 µM	94%
C[C@H]1O[C@H](O[C@H]2[C@H](O)[C@@H](O)[C@@H](O[C@H]3[C@H](O)[C@@H](O)C(O)O[C@@H]3CO)O[C@@H]2CO)[C@H](O)[C@@H](O)[C@@H]1N[C@H]1C=C(CO)[C@@H](O)[C@H](O)[C@H]1O (stereo partly shown) [acarbose, reference compound]	–	58.5%

— article PMC9730482 (ACS Omega, 2022)
